Assay results: patent publication EP1205473A1, “VESAMICOL PIPERAZINE DERIVATIVES AND DRUGS CONTAINING THE SAME” (DAIICHI RADIOISOTOPE LABORATORIES, LTD., priority 1999, dated 2001)
Like-named read-outs stand apart in the source and are kept apart here.

Key:
[1] = target: serotonin 5-HT2A receptors (Rattus norvegicus, UniProt P14842); assay: Receptor binding test: inhibition of tritium-labeled ketanserin binding to brain homogenate; set-up: species or system Male Wistar rats
vesamicol receptors [2] = target: T1, vesamicol receptors (Rattus norvegicus, UniProt Q62666); assay: Receptor binding test: inhibition of I-125 labeled 5-iodobenzo vesamicol binding to brain homogenate; set-up: from tissue; host or cells: rat brain without cerebellum, P2 fraction; species or system Male Wistar rats; details: Inhibitive concentration at 50% (IC50), Vesamicol receptor, Table 5; incubated three hours at 37°C; no unit printed in table (b19 gives nM for DRC140)
T1 sequence (Q62666 1-530): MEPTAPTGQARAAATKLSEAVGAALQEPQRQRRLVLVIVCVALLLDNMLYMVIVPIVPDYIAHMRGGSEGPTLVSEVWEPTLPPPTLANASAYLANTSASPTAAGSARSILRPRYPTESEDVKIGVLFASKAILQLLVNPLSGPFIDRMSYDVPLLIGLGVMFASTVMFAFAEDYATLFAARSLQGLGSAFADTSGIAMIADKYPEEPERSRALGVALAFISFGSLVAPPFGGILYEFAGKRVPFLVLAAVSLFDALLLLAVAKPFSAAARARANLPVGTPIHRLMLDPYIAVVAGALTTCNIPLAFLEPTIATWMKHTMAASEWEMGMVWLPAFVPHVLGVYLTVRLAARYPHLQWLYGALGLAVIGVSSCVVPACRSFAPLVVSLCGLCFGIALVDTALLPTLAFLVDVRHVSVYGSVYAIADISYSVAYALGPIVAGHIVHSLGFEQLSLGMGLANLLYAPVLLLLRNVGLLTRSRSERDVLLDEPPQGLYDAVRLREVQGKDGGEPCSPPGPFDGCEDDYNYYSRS
Experimental: (§1) Properties relating to binding of the vesamicol piperazine derivatives of the present invention to various receptors were examined as follows. Specifically, ligands which combine with each receptor were incubated together with homogenates prepared as follows.
To measure affinity of vesamicol receptors, I-125 labeled 5-iodobenzo vesamicol (synthesized and labeled according to Jung et al., J. Med. Chem. 33, 2065-2068, 1990) was added to a brain homogenate prepared as follows. The vesamicol piperazine derivatives synthesized in the Examples were added at various concentrations. The mixture was then incubated for three hours at 37°C.
(§2) B (%) =((1 0 0 × [U])^(∩))/([ I C50 (])^(∩) (+ [U])^(∩)) [formula] wherein B(%) is the proportion of specific binding in the total binding, n indicates a Hill coefficient, and U is the concentration of unbound ligand.
Male Wistar rats were anesthetized with ether and were decapitated. The brains were immediately extracted. The cerebella were removed from the brains. 0.32 M sucrose (containing 4 mM HEPES (pH 7.4)) in an amount of five times the wet amount (weight) of this sample was added. The sample was homogenized by a potter-type homogenizer for 12 strokes while cooling with ice. 0.32 M sucrose in the same amount as the homogenate (total: 10 times the wet amount of the original sample) was added. The suspension thus obtained was centrifuged for 5 minutes at 1,000 x g. The precipitate was removed. The supernatant liquid was centrifuged at 9,200 x g for 15 minutes to separate the precipitate from the supernatant liquid. P2 fractions were suspended in a Tris-HCl buffer (pH 7.4) for binding experiments and stored at -80°C until the start of the binding experiment.

[3] = target: T2, serotonin 5-HT1A receptors (Rattus norvegicus, UniProt P19327); assay: Receptor binding test: inhibition of tritium-labeled 8-hydroxy-DPAT binding to brain (hippocampus) homogenate; set-up: species or system Male Wistar rats
T2 construct: The hippocampi were immediately collected from the brains; from tissue; host or cells: rat hippocampus membranes
T2 sequence (P19327 1-422): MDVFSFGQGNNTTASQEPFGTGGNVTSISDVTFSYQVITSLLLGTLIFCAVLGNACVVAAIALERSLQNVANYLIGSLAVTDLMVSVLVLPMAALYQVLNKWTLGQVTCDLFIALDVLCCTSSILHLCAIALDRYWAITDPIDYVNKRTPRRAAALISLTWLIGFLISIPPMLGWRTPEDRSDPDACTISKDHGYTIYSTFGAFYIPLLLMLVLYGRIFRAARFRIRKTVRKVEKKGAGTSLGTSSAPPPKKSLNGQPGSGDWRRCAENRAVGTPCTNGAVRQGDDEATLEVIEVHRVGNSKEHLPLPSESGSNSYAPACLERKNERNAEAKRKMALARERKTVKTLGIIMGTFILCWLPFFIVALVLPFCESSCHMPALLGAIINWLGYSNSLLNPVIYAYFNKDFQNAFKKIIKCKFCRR
Experimental: as §1
To measure affinity to serotonin 5-HT1A receptors, tritium-labeled 8-hydroxy-DPAT was added to a brain homogenate prepared as follows. The vesamicol piperazine derivatives synthesized in the Examples were added at various concentrations, and the mixture was incubated for 30 minutes at 37°C. To measure affinity to serotonin 5-HT2A receptors, tritium-labeled ketanserin was added to a brain homogenate prepared as follows. The vesamicol piperazine derivatives synthesized in the Examples were added at various concentrations, and the mixture was incubated for 15 minutes at 37°C.
as §2
Male Wistar rats were anesthetized with ether and were decapitated and the brains quickly extracted. The hippocampi were immediately collected from the brains. A 40-fold (vol/wt) amount of ice cooled 50 mM Tris-HCl buffer (pH 7.4) was added to the hippocampi. The mixture was homogenized using a potter-type homogenizer. The homogenate was centrifuged at 40,000 x g for 20 minutes. The supernatant liquid was removed and the resulting pellets were suspended in a 40-fold amount of Tris-HCl buffer solution. The suspension was centrifuged and the Tris buffer solution was again added to the pellets. This procedure was repeated twice. The product thus obtained was homogenized using a 40-fold amount of Tris-HCl buffer solution and incubated for 10 minutes at 37°C to remove endogenic 5-HT. The cell membrane was collected by centrifugation, washed twice, and suspended in a 10-fold amount of 50 mM Tris-HCl buffer solution (pH 7.4). The suspension thus obtained was stored at -80°C until the start of the binding experiment.

vesamicol receptors [4] = target: T1, vesamicol receptors; assay: Inhibition experiment: inhibition of binding of radioactive-iodine-labeled DRC140 to P2 fractions; set-up: Synaptic vesicles were extracted and separated from the brain of a rat; from tissue; host or cells: rat brain without cerebellum: P2, crude synaptic vesicles, purified synaptic vesicles
sigma receptors = target: T3, sigma receptors (Cavia porcellus, UniProt Q60492); assay: Receptor binding test: inhibition of tritium-labeled (+) pentazocine binding to brain homogenate; set-up: species or system male guinea pig
T3 construct: The brain was immediately extracted; The cerebellum was removed from the brain; from tissue; host or cells: guinea pig brain without cerebellum, membrane pellet
T3 sequence (Q60492 whole entry): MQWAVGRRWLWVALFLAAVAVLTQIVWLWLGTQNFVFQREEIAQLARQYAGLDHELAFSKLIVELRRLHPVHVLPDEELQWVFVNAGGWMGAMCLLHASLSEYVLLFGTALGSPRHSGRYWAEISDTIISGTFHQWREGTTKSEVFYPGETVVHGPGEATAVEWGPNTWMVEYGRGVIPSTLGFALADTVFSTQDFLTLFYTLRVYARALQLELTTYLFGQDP
Experimental: as §1
To measure affinity to sigma receptors, tritium-labeled (+) pentazocine was added to a brain homogenate prepared as follows. The vesamicol piperazine derivatives synthesized in the Examples were added at various concentrations, and the mixture was incubated for two hours at room temperature.
as §2
A male guinea pig was anesthetized with ether and was decapitated. The brain was immediately extracted. The cerebellum was removed from the brain. 10 mM Tris-sucrose buffer solution (0.32 M sucrose + 10 mM Tris-HCl (pH 7.4)) was added in the amount of 10 ml/g of the tissue. The mixture was homogenized by a potter-type homogenizer for 6-10 strokes. The homogenate was centrifuged at 1,000 x g for 10 minutes at 4°C and the supernatant liquid was collected. The resulting pellets were suspended in the Tris-sucrose buffer solution at the concentration of 2 ml/g, followed by centrifugation at 1,000 x g for 10 minutes at 4°C. The supernatant liquids obtained by the two centrifugation at 1,000 x g were combined and centrifuged at 31,000 x g for 15 minutes at 4°C. The resulting pellets were suspended in a 10 mM Tris-HCl buffer solution (pH 7.4) at a concentration of 3 ml/g of tissue and incubated for 30 minutes at 25°C. After incubation, the suspension was centrifuged at 31,000 x g for 15 minutes at 4°C. The pellets obtained were suspended in a 10 mM Tris-HCl buffer solution (pH 7.4) to make a final concentration of 1.53 ml/g of tissue. The suspension was homogenized by a potter-type homogenizer for 5 strokes. The homogenate was stored at -80°C until the start of the experiment.

vesamicol receptors [5] = target: T1, vesamicol receptors; assay: Inhibition experiment: inhibition of binding of radioactive-iodine-labeled DRC140 to purified synaptic vesicle fractions; set-up: Synaptic vesicles were extracted and separated from the brain of a rat; from tissue; host or cells: rat brain without cerebellum: P2, crude synaptic vesicles, purified synaptic vesicles
adrenaline α1 receptors = assay: Receptor binding test: inhibition of tritium-labeled prazosin binding to brain homogenate; set-up: species or system Male Wistar rats; details: read-out: inhibitive concentration at 50% (IC50), Receptor Alpha-1; Table 9; high purity derivatives; unit inferred
[6] = inhibitive concentration at 50% (IC50), Receptor Vesamicol
[7] = read-out: inhibitive concentration at 50% (IC50), Receptor Sigma-1

serotonin 5-HT2A receptors, sequence (P14842 whole entry): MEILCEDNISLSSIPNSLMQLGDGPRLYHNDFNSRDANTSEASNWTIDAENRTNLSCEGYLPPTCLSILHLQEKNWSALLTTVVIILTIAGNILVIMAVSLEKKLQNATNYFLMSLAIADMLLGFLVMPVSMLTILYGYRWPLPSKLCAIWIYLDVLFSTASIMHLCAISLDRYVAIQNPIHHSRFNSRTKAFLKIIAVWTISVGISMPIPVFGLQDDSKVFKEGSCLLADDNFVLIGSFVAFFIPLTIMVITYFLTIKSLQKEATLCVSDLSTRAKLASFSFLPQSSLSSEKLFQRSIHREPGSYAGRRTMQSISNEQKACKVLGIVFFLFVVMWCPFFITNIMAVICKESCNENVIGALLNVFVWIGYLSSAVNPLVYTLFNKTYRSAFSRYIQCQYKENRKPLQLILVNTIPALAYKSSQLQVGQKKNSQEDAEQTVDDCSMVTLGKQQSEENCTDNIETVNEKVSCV

`Cc1ccc(C)c(N2CCN([C@@H]3Cc4c(I)cccc4C[C@H]3O)CC2)c1` (single isomer, unassigned) [DRE350, (-)-trans-5-iodo-2-hydroxy-3-[4-[2,5-dimethylphenyl]piperazinyl]tetralin] was tested, and the IC50 ([1]; read-out: Inhibitive concentration at 50% (IC50), Serotonin receptor 5-HT2A) was greater than 20000 nM, the IC50 (vesamicol receptors [2]) was 0.58 nM and the IC50 ([3]; read-out: Inhibitive concentration at 50% (IC50), Serotonin receptor 5-HT1A) was 240 nM. The IC50 (vesamicol receptors [4]; [6]) was 0.83 nM, the IC50 (sigma receptors; read-out: Inhibitive concentration at 50% (IC50), Sigma α-1 receptor) was 1500 nM and the IC50 (sigma receptors; [7]) was 5550 nM.
`OC1CCCCC1N1CCC(c2ccccc2)CC1` (single isomer, unassigned; (-)) [(-)-Vesamicol, 2-(4-phenyl-piperidino)cyclohexanol, reference compound] was tested, and the IC50 [1] was greater than 5000 nM, the IC50 (vesamicol receptors [5]) was 45.4 ± 3.59 nM and the IC50 [3] was greater than 5000 nM. It also gave an IC50 (vesamicol receptors [4]; IC50 (nM) Average ± S.D) of 58.2 ± 17.3 nM, an IC50 (vesamicol receptors [4]; [6]) of 45.4 nM and an IC50 (sigma receptors) of 66.5 nM.
In the case of `O[C@@H]1Cc2cccc(I)c2C[C@H]1N1CCC(c2ccccc2)CC1` [(-)-IBVM, 5-iodobenzovesamicol, reference compound], the IC50 ([1]; read-out: inhibitive concentration at 50% (IC50), Receptor 5-HT2A) is reported as greater than 5000 nM, the IC50 (adrenaline α1 receptors) is reported as 2.61 nM and the IC50 ([3]; read-out: inhibitive concentration at 50% (IC50), Receptor 5-HT1A) is reported as 119 nM. The IC50 (vesamicol receptors [4]; read-out: inhibitive concentration at 50% (IC50), Receptor Vesamicol) was 0.32 nM and the IC50 (sigma receptors; [7]) was 174 nM.
For `Cc1ccccc1NC(=N)Nc1ccccc1C` [DTG, reference compound], the IC50 (vesamicol receptors [5]) was 4160 ± 251 nM, the “inhibitive action on purified synaptic vesicles” value (vesamicol receptors [5]; result in words) was “almost the same degree of weak inhibitive action” and the “inhibitive action on P2 fractions” value (vesamicol receptors [4]) was “weak inhibitive action”. For the same molecule, the IC50 (vesamicol receptors [4]; IC50 (nM) Average ± S.D) was 3820 ± 930 nM.
